According to PubChem BioAssay AID256 (DTP/NCI, 2004):
Where “and” joins values, the source holds several entries; their conditions need not be identical. Identical values can stand only once. Toxic doses and inconclusive results are not listed. How the source made its calls: active means survival T/C of 150% or more; inactive means T/C below 125% in these data.

Tested on: CD2F1 mice, L1210 leukemia ip, survival T/C
Experiment: NCI In Vivo Anticancer Drug Screen. Data for tumor model L1210 Leukemia (intraperitoneal) in CD2F1 (CDF1) mice
Conditions: higher = longer survival
Procedure, shortened: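 Ratio T/C, where T is the treated-group value and C the vehicle-dosed control value, from mice implanted with a transplantable tumor.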

[1] = endpoint: mean survival time, dose: 100.0 mg/kg/injection, schedule: Q01DX001 (ip), vehicle: saline
[2] = endpoint: mean survival time, dose: 200.0 mg/kg/injection, schedule: Q01DX001 (ip), vehicle: saline
[3] = endpoint: mean survival time, dose: 400.0 mg/kg/injection, schedule: Q01DX001 (ip), vehicle: saline
[4] = endpoint: mean survival time, dose: 100.0 mg/kg/injection, schedule: Q01DX009 (ip), vehicle: saline with Tween-80
[5] = endpoint: mean survival time, dose: 200.0 mg/kg/injection, schedule: Q01DX009 (ip), vehicle: saline with Tween-80
[6] = endpoint: mean survival time, dose: 400.0 mg/kg/injection, schedule: Q01DX009 (ip), vehicle: saline with Tween-80
[7] = endpoint: mean survival time, dose: 100.0 mg/kg/injection, schedule: Q04DX003 (ip), vehicle: saline with Tween-80
[8] = endpoint: mean survival time, dose: 200.0 mg/kg/injection, schedule: Q04DX003 (ip), vehicle: saline with Tween-80

Measured: T/C

CC(=O)c1cc(Br)cc(Br)c1O
inactive: [1] 96 % of control | [2] 100 % of control | [3] 96 % of control

CN(Cc1ccc2nc(N)[nH]c(=O)c2n1)c1ccc(C(=O)NC(CCC(=O)O)C(=O)O)cc1 (configuration not stated)
inactive: endpoint: mean survival time, dose: 0.5 mg/kg/injection, schedule: Q01DX005 (ip), vehicle: sodium bicarbonate 98 % of control and 101 % of control | endpoint: mean survival time, dose: 1.0 mg/kg/injection, schedule: Q01DX005 (ip), vehicle: sodium bicarbonate 101 % of control and 104 % of control | endpoint: mean survival time, dose: 2.0 mg/kg/injection, schedule: Q01DX005 (ip), vehicle: sodium bicarbonate 101 % of control and 102 % of control | endpoint: mean survival time, dose: 4.0 mg/kg/injection, schedule: Q01DX005 (ip), vehicle: sodium bicarbonate 98 % of control and 102 % of control | endpoint: mean survival time, dose: 8.0 mg/kg/injection, schedule: Q01DX005 (ip), vehicle: sodium bicarbonate 104 % of control and 107 % of control | endpoint: mean survival time, dose: 16.0 mg/kg/injection, schedule: Q01DX005 (ip), vehicle: sodium bicarbonate 102 % of control and 107 % of control

CC1CC(C)(C)CC2CC(C(=O)O)(C(=O)O)CC12 (configuration not stated)
inactive: endpoint: mean survival time, dose: 100.0 mg/kg/injection, schedule: Q04DX003 (ip), vehicle: saline sonified 102 % of control | endpoint: mean survival time, dose: 200.0 mg/kg/injection, schedule: Q04DX003 (ip), vehicle: saline sonified 96 % of control | endpoint: mean survival time, dose: 400.0 mg/kg/injection, schedule: Q04DX003 (ip), vehicle: saline sonified 100 % of control

OC(CCC(O)c1ccccc1)c1ccccc1 (configuration not stated)
inactive: endpoint: mean survival time, dose: 75.0 mg/kg/injection, schedule: Q01DX001 (ip), vehicle: saline sonified 98 % of control | endpoint: mean survival time, dose: 150.0 mg/kg/injection, schedule: Q01DX001 (ip), vehicle: saline sonified 96 % of control | endpoint: mean survival time, dose: 300.0 mg/kg/injection, schedule: Q01DX001 (ip), vehicle: saline sonified 94 % of control

S=C(NCc1ccccc1)Nc1ncn[nH]1
inactive: endpoint: mean survival time, dose: 12.5 mg/kg/injection, schedule: Q01DX001 (ip), vehicle: carboxymethylcellulose (CMC) 97 % of control | endpoint: mean survival time, dose: 25.0 mg/kg/injection, schedule: Q01DX001 (ip), vehicle: carboxymethylcellulose (CMC) 89 % of control | endpoint: mean survival time, dose: 50.0 mg/kg/injection, schedule: Q01DX001 (ip), vehicle: carboxymethylcellulose (CMC) 86 % of control | endpoint: mean survival time, dose: 100.0 mg/kg/injection, schedule: Q01DX001 (ip), vehicle: carboxymethylcellulose (CMC) 86 % of control

Cc1ccc(S(=O)(=O)NN=C2CCC3(CC2)c2ccccc2-c2ccccc23)cc1
inactive: endpoint: mean survival time, dose: 100.0 mg/kg/injection, schedule: Q01DX001 (ip), vehicle: Klucel (hydroxypropylcellulose) (HPC) 96 % of control | endpoint: mean survival time, dose: 200.0 mg/kg/injection, schedule: Q01DX001 (ip), vehicle: Klucel (hydroxypropylcellulose) (HPC) 96 % of control | endpoint: mean survival time, dose: 400.0 mg/kg/injection, schedule: Q01DX001 (ip), vehicle: Klucel (hydroxypropylcellulose) (HPC) 98 % of control

O=C(O)/C=N/NS(=O)(=O)Cc1ccccc1
inactive: endpoint: mean survival time, dose: 12.5 mg/kg/injection, schedule: Q04DX003 (ip), vehicle: other 102 % of control | endpoint: mean survival time, dose: 25.0 mg/kg/injection, schedule: Q04DX003 (ip), vehicle: other 113 % of control | endpoint: mean survival time, dose: 50.0 mg/kg/injection, schedule: Q04DX003 (ip), vehicle: other 117 % of control | endpoint: mean survival time, dose: 100.0 mg/kg/injection, schedule: Q04DX003 (ip), vehicle: other 117 % of control | endpoint: mean survival time, dose: 200.0 mg/kg/injection, schedule: Q04DX003 (ip), vehicle: other 122 % of control | endpoint: mean survival time, dose: 400.0 mg/kg/injection, schedule: Q04DX003 (ip), vehicle: other 111 % of control

CCN(CC(C)Cl)c1ccc(NC(=O)c2cc(N3CC3)c([N+](=O)[O-])cc2[N+](=O)[O-])cc1 (configuration not stated)
inactive: endpoint: mean survival time, dose: 22.0 mg/kg/injection, schedule: Q01DX001 (ip), vehicle: Klucel (hydroxypropylcellulose) (HPC) 97 % of control | endpoint: mean survival time, dose: 44.0 mg/kg/injection, schedule: Q01DX001 (ip), vehicle: Klucel (hydroxypropylcellulose) (HPC) 97 % of control | endpoint: mean survival time, dose: 88.0 mg/kg/injection, schedule: Q01DX001 (ip), vehicle: Klucel (hydroxypropylcellulose) (HPC) 103 % of control

CCCCNP1(NCCCC)=NP(NCCCC)(NCCCC)=NP(NCCCC)(NCCCC)=NP(NCCCC)(NCCCC)=N1
inactive: endpoint: median survival time, dose: 12.5 mg/kg/injection, schedule: Q01DX009 (ip), vehicle: saline with Tween-80 107 % of control | endpoint: median survival time, dose: 25.0 mg/kg/injection, schedule: Q01DX009 (ip), vehicle: saline with Tween-80 107 % of control | endpoint: median survival time, dose: 50.0 mg/kg/injection, schedule: Q01DX009 (ip), vehicle: saline with Tween-80 97 % of control

COc1ccc(-c2c(O)c3c(OC)cc(OC)cc3oc2=O)cc1
inactive: endpoint: mean survival time, dose: 50.0 mg/kg/injection, schedule: Q01DX009 (ip), vehicle: saline with Tween-80 100 % of control | [4] 93 % of control | [5] 103 % of control

N#CC12CC3CC(CC(C3)C1)C2
inactive: endpoint: mean survival time, dose: 5.0 mg/kg/injection, schedule: Q04DX003 (ip), vehicle: saline with Tween-80 104 % of control | endpoint: mean survival time, dose: 10.0 mg/kg/injection, schedule: Q04DX003 (ip), vehicle: saline with Tween-80 104 % of control | endpoint: mean survival time, dose: 20.0 mg/kg/injection, schedule: Q04DX003 (ip), vehicle: saline with Tween-80 100 % of control

CC(=O)OC1C(CNC(=O)N(C)N=O)OC(OC2(CNC(=O)N(C)N=O)OC(CNC(=O)N(C)N=O)C(OC(C)=O)C2OC(C)=O)C(OC(C)=O)C1OC(C)=O (configuration not stated)
inactive: endpoint: mean survival time, dose: 12.5 mg/kg/injection, schedule: Q01DX009 (ip), vehicle: other 93 % of control | endpoint: mean survival time, dose: 25.0 mg/kg/injection, schedule: Q01DX009 (ip), vehicle: other 94 % of control | endpoint: mean survival time, dose: 50.0 mg/kg/injection, schedule: Q01DX009 (ip), vehicle: other 104 % of control | endpoint: mean survival time, dose: 100.0 mg/kg/injection, schedule: Q01DX009 (ip), vehicle: other 102 % of control | endpoint: mean survival time, dose: 200.0 mg/kg/injection, schedule: Q01DX009 (ip), vehicle: other 120 % of control

C=C1C(=O)OC2CC(C)C3C4OC4C(O)C3(C)C(O)C12 (configuration not stated)
inactive: endpoint: median survival time, dose: 3.12 mg/kg/injection, schedule: Q01DX009 (ip), vehicle: saline 97 % of control | endpoint: median survival time, dose: 6.25 mg/kg/injection, schedule: Q01DX009 (ip), vehicle: saline 113 % of control | endpoint: median survival time, dose: 12.5 mg/kg/injection, schedule: Q01DX009 (ip), vehicle: saline 101 % of control | endpoint: median survival time, dose: 25.0 mg/kg/injection, schedule: Q01DX009 (ip), vehicle: saline 107 % of control | endpoint: median survival time, dose: 50.0 mg/kg/injection, schedule: Q01DX009 (ip), vehicle: saline 109 % of control | endpoint: median survival time, dose: 100.0 mg/kg/injection, schedule: Q01DX009 (ip), vehicle: saline 124 % of control

SCc1ccccc1
inactive: endpoint: mean survival time, dose: 100.0 mg/kg/injection, schedule: Q01DX001 (ip), vehicle: saline with Tween-80 110 % of control | endpoint: mean survival time, dose: 200.0 mg/kg/injection, schedule: Q01DX001 (ip), vehicle: saline with Tween-80 98 % of control | endpoint: mean survival time, dose: 400.0 mg/kg/injection, schedule: Q01DX001 (ip), vehicle: saline with Tween-80 105 % of control

O=CNc1ccccc1
inactive: [4] 97 % of control | [5] 105 % of control | [6] 115 % of control

CC1OC(C)(C)OC1C(=O)OCc1ccccc1 (configuration not stated)
inactive: endpoint: mean survival time, dose: 25.0 mg/kg/injection, schedule: Q01DX009 (ip), vehicle: Klucel (hydroxypropylcellulose) (HPC) 96 % of control | endpoint: mean survival time, dose: 50.0 mg/kg/injection, schedule: Q01DX009 (ip), vehicle: Klucel (hydroxypropylcellulose) (HPC) 93 % of control | endpoint: mean survival time, dose: 100.0 mg/kg/injection, schedule: Q01DX009 (ip), vehicle: Klucel (hydroxypropylcellulose) (HPC) 99 % of control | endpoint: mean survival time, dose: 200.0 mg/kg/injection, schedule: Q01DX009 (ip), vehicle: Klucel (hydroxypropylcellulose) (HPC) 94 % of control | endpoint: mean survival time, dose: 400.0 mg/kg/injection, schedule: Q01DX009 (ip), vehicle: Klucel (hydroxypropylcellulose) (HPC) 99 % of control

COC1(O)C(=O)c2ccccc2OC1(OC)c1ccc(C)cc1 (configuration not stated)
inactive: endpoint: mean survival time, dose: 50.0 mg/kg/injection, schedule: Q01DX001 (ip), vehicle: saline 102 % of control | [1] 98 % of control | [2] 96 % of control | [3] 98 % of control

Cc1ccc2ncccc2c1[N+](=O)[O-]
inactive: [7] 101 % of control | [8] 95 % of control

COc1ccc(C(C)=O)cc1C=O
inactive: [4] 87 % of control | [7] 97 % of control | [5] 92 % of control | [8] 104 % of control | [6] 90 % of control | endpoint: mean survival time, dose: 400.0 mg/kg/injection, schedule: Q04DX003 (ip), vehicle: saline with Tween-80 102 % of control

O=S1(=O)CCCN1c1ccccc1
inactive: [1] 100 % of control | [2] 106 % of control | [3] 103 % of control
